In data set [1] the test system is cerebellar microexplants. The data set is described as follows: Neuronal survival of cerebellar microexplants exposed to the neurotoxin 3-NP (cells having neurites counted). Conditions: for neuroprotection after exposure to 3-NP, larger set of data: study of 6 in each group, FIG. 4. Type of data set: cell-based, Wistar rat. How it is done: (§1) Laminated cerebellar cortices of the two hemispheres were explanted from a P3, P4, P7 or P8 Wistar rat, cut into small pieces in GBSS with 0.65% D(+)glucose solution, and triturated by a 0.4 mm gauge needle and subsequently pressed through a 125 μm pore size sieve. The obtained microexplants were centrifuged (60×g) 2 times for a medium exchange into serum-free BSA-supplemented START V-medium (Biochrom). Finally, the microexplants were reconstituted in 500 μl STARTV-medium. For culturing, 38 μl of the cell suspension was incubated for 1 hour on a poly-D-lysine-coated cover slip in a 35 mm Petri dish under an atmosphere comprising 5% CO2 in air and 100% humidity at 34° C. Subsequently, the injuring toxins (as described below), NRP analogues and 1 ml of STARTV-medium were added, and the cultures were evaluated after 2-3 days of culture.
(§2) General methods for toxicological and drug administration experiments were designed such that 1/100 parts of toxin and neuroprotective drug were administered simultaneously to the freshly prepared cerebellar microexplants. Glutamate was prepared as a 50 mM stock solution in MilliQ water while 50 mM 3-nitropropionic acid (3-NP) was pH-adjusted (pH 6.8-7.2) in MilliQ water. The concentrations of the oxidative stress inducing toxin, 3-nitropropionic acid (3-NP), and the excitotoxin, glutamate, in the assay were at concentrations of 0.5 mM each. Lyophilized NRP peptides were reconstituted in PBS or 100 μg/ml human transferrin as a 10 μM stock solution. Subsequently, serial dilutions were made. Cerebellar microexplants were cultivated for 48-72 hours at 34° C., 5% CO2 in air and 100% humidity before they were fixed by increasing amounts of paraformaldehyde (0.4%, 1.2%, 3% and 4%—each treatment 2-3 min).
Using the toxins described above, cerebellar explants were exposed for 24 hours, at the beginning of culturing to dilutions of NRP (survival assay) or NRP and 0.1 μM BrdU (proliferation assay). Subsequently, 80% of the medium was changed without addition of new toxins and NRPs. The cerebellar cultures were fixed as described above after 3 days in vitro. The detection of the incorporated BrdU level is performed as described previously.
For statistical analysis of survival, four fields (each field having an area of 0.65 mm^2) of each fixed cerebellar culture with the highest cell densities were chosen, and cells displaying neurite outgrowth were counted (survival assay).
We exposed cell cultures to vehicle alone (open column) the neurotoxin 3-NP alone (shaded column) to 3-NP plus different concentrations of SEQ ID NO:5 (hatched columns) or to 3-NP plus different concentrations of a non-substituted NRP, SEQ ID NO:1 (dark shaded column). We then counted the numbers of cells having neurites as an indicator of neuronal cell survival.

Data set [2] relates to cerebellar explants. The data set is described as follows: Storage stability: peptide stored 9 weeks at −20° C. or −4° C., then tested for neuroprotection against 3-NP in cerebellar explants. Conditions: for stability in storage (retention of neuroprotective activity): 9 weeks, −4° C. compared with −20° C.; for neuroprotective effect against 3-NP after storage at −4° C.: stored 9 weeks at −4° C.; for neuroprotective effect against 3-NP after storage at −4° C. / neuroprotective effect against 3-NP after storage at −20° C.: four concentrations 10^−13 M to 10^−10 M; for neuroprotective effect against 3-NP after storage at −20° C.: stored 9 weeks at −20° C. It counts as cell-based, Wistar rat. On the procedure:
as §1, §2
To determine the stability of NRPs of this invention in storage, we carried out a series of studies using SEQ ID NO:1. In this study, we synthesized SEQ ID NO:1 and then stored the peptide at temperatures of either −20° C. or −4° C. for nine (9) weeks. We then tested the NRP for efficacy in protecting cerebellar neurons against the neurotoxic effect of 3-NP as described above. Cerebellar explants were treated with vehicle alone (open column), the neurotoxic agent 3-NP alone (light stippled column), or 3-NP plus four concentrations of SEQ ID NO:1 that had been stored for 9 weeks at −20° C., or at −4° C.
In this study, we determined the stability of a substituted NRP, SEQ ID NO:5, in different storage conditions and at different concentrations as with Example 3 above. We synthesized SEQ ID NO:5 and then stored the peptide for 9 weeks at a temperature of either −20° C. or −4° C. We then tested the efficacy of SEQ ID NO:5 in decreasing the neurotoxic effect of 3-NP as described in Examples 2 and 3 above.

The subject of data set [3] is mouse model of experimental autoimmune encephalitis (EAE). The data set is described as follows: MOG-induced experimental autoimmune encephalitis (EAE) model of multiple sclerosis, clinical score of neurological impairment. Conditions: 0.1 μg peptide/animal (4.16 μg/kg) i.p. daily for 14 days from day 17 after MOG-immunization; outcome 37 days after first treatment; p<0.01 versus treatment day 1 score; FIG. 5. It counts as in vivo, mice, strain C57B1/6J.

In data set [4] the test system is rats with peripheral neuropathy induced by pyridoxine. The data set is described as follows: Pyridoxine-induced peripheral neuropathy, precision beam walk motor deficit score. Type of data set: in vivo. Conditions: for motor deficits (beam walking score) versus vehicle: Experiment I: pyridoxine 800 mg/kg/day 8 days, four days after cessation of pyridoxine. On the procedure:
Male Sprague-Dawley rats were used and were weighed 278-349 g at the commencement of intoxication with pyridoxine chloride. Before intoxication, rats were habituated to walk across a beam at daily intervals for a week.
Experiment I: Rats were administered 400 mg/kg pyridoxine chloride dissolved in sterile distilled water adjusted to neutral pH intraperitoneally (i.p) twice daily for 8 days and concurrently the peptide having the sequence SEQ ID NO:5 was administered i.p. for at total of 10 days.
Experiment II: Rats were administered a higher dose of pyridoxine (1200 mg/kg/day) over a shorter period of time. Pyridoxine chloride dissolved in sterile distilled water adjusted to neutral pH was administered i.p. to the rats at a dose of 600 mg/kg twice daily for 4 days. Concurrently the peptide having the sequence SEQ ID NO:5 was administered for 4 days. On day 5, rats were tested for motor deficits.
Motor deficits after pyridoxine intoxication and effects of SEQ ID NO:5 were analyzed using a precision beam walk. Seven subsequent foot steps across the 1.5 m long beam were videotaped and according to the positioning of the foot tarsus, these steps were scored between 1 to 4 (1—hind leg tarsus above the beam median; 2—tarsus was touching the upper half of beam medium; 3-tarsus was touching the lower half of beam median and 4—tarsus below the beam median). The score results of all seven steps were added together. A score of 30 was given if the animal was only able to stand on the beam but was unable to walk. In the event of inability to stand on the beam a score of 32 was awarded.
Experiment I: The two concentrations tested for SEQ ID NO:5 were 40 ng/kg/day and 4 μg/kg/day.
Experiment II: Saline and SEQ ID NO:5 at a dose of 4 μg/kg/day were tested.
Motor deficit data were assessed by two-way analysis of variance and Bonferroni post-hoc test. Statistical significance was concluded if p<0.05 between drug treatment cohorts and vehicle treatment.

Data set [5] relates to SOD-1 mutant (ALS) transgenic mice. The data set is described as follows: Survival of SOD-1 mutant (ALS) transgenic mice, Kaplan-Meier. Type of data set: in vivo. An excerpt:
In this series of studies, we examined the effects of SEQ ID NO:5 on mice having a genetic defect (SOD-1) that produces a motor neuron disease similar to that in humans with ALS Animals with this disorder show a progressive loss of motor coordination over time, and ultimately die prematurely of the disease. This animal system is useful in studying effects of agents potentially useful in treating ALS in human beings. Thus, results obtained are highly predictive of results obtained in humans with ALS.
Mice were randomly allocated to receive either vehicle or SEQ ID NO:5 from the point of disease onset onwards.
SEQ ID NO:5 treatment (40 μg/kg, given 1/day, i.p. (FIG. 8A) or 0.4 μg/kg, given 1/day, i.p. (FIG. 8B)) was started at the day of onset of the disease.

Entries after “also recorded” stand apart in the source; their conditions may differ. Where a SMILES comes first, the peptide text is derived from it. [ ]: non-standard residue; d: D form. Aib = CC(C)(N)C(=O)O

In the case of “NH2-G^1RRAAPGRAGG^11-NH2 (H-GRRAAPGRAGG-NH2; listed as Homo sapiens) [SEQ ID NO:1, un-substituted comparator, reference compound]”, the “decrease of neurotoxic effects of 3-NP (cells having neurites)” value in data set [1] (peptide at 10 fM or 1 pM, 0.5 mM 3-NP, p<0.001, n=4, FIG. 1) is given as “significantly decreased the neurotoxic effects of 3-NP”. Further, the “neuroprotection after exposure to 3-NP, larger set of data” value in data set [1] is “protect neurons from dying”. Also, in data set [2], the “stability in storage (retention of neuroprotective activity)” value is on record as “loses activity over the 9-week period”, the “neuroprotective effect against 3-NP after storage at −4° C.” value is given as “little decrease in neurotoxic effect of 3-NP” and the “neuroprotective effect against 3-NP after storage at −20° C.” value was “neuroprotective effects at all concentrations tested”.
For “NH2-G^1RRAAPGRANG^11-NH2 (H-GRRAAPGRANG-NH2) [SEQ ID NO: 6]”, the “neuroprotection in in vitro model of neural toxicity induced by 3-NP” value in data set [1] (3-NP) is listed as “neuroprotective”.
Take “NH2—REGRRDAPGRAGG-NH2 (H-REGRRDAPGRAGG-NH2) [SEQ ID NO: 12]”: in data set [3], the “therapeutic effect on EAE clinical score (severity of motoric impairment)” value was “significant therapeutic effect”.
Consider H-GR[dR]AAPGRAGG-NH2 [SEQ ID NO: 8], for which the “neuroprotection in in vitro model of neural toxicity induced by 3-NP” value in data set [1] (3-NP) is reported as “neuroprotective”.
Still for that read-out and setting: the result for “AcNH-RRAAPGRAGG^11-NH2 (Ac-RRAAPGRAGG-NH2) [SEQ ID NO: 7]” reads “neuroprotective”.
For the compound `C[C@H](NC(=O)[C@H](CCCNC(=N)N)NC(=O)[C@H](CCCNC(=N)N)NC(=O)CN)C(=O)N[C@@H](C)C(=O)N1CCC[C@H]1C(=O)NCC(=O)N[C@@H](CCCNC(=N)N)C(=O)NC(C)(C)C(=O)NCC(=O)NCC(N)=O` [SEQ ID NO:5, NH2-G^1RRAAPGR-Aib-GG^11-NH2] (H-GRRAAPGR[Aib]GG-NH2), the “neuroprotection compared with the unsubstituted NRP” value in data set [1] (3-NP, FIGS. 1 and 4) is given as “more neuroprotective than the unsubstituted NRP”. In addition, in data set [1] (FIG. 1, n=4), the “concentration of maximal effect on 3-NP-induced neurotoxicity” value is “about 100 fM” and the “threshold concentration for decrease of 3-NP-induced neurotoxicity” value is “below 1 fM”. The “decrease of 3-NP-induced neurotoxicity (cells having neurites)” value in data set [1] (different concentrations, 0.5 mM 3-NP, p<0.001, n=4 each, FIG. 1) is “decreased 3-NP-induced neurotoxicity in a concentration dependent fashion”. Besides, in data set [1], the “neuroprotection after exposure to 3-NP, larger set of data” value is reported as “protect neurons from dying”. Also, in data set [2], the “stability in storage (retention of neuroprotective activity)” value is “not statistically different; also recorded: stable under storage conditions”, the “neuroprotective effect against 3-NP after storage at −4° C.” value is reported as “retained its neuroprotective effect” and the “neuroprotective effect against 3-NP after storage at −20° C.” value is “neuroprotective effects similar to those found for SEQ ID NO:1”. For the same compound, the “motor deficits (beam walking score) versus control group” value in data set [4] (Experiment I: peptide 4 μg/kg/day, day 16 after start of pyridoxine-intoxication, p<0.05, FIG. 6) is reported as “significantly less motor deficits than the control group”. The “motor deficits (beam walking score) versus vehicle” value in data set [4] (peptide 40 ng/kg/day i.p. 10 days, p<0.05, FIG. 6) was “attenuated motor deficits”. In addition, in data set [4] (peptide 4 μg/kg/day i.p. 10 days, p<0.01, FIG. 6), the “motor deficits (beam walking score) versus vehicle” value is “attenuated motor deficits”. The “motor deficits (beam walking score) versus control group” value in data set [4] (Experiment II: pyridoxine 1200 mg/kg/day 4 days, peptide 4 μg/kg/day 4 days, day 5, p<0.001, FIG. 7) was “highly significantly attenuation of motor deficits”. Also, in data set [4] (rats, 4 μg/kg/day), the tolerability entry is recorded as “well tolerated”. Moreover, in data set [5] (Study 1, 40 μg/kg 1/day i.p., vehicle all dead by day 143, FIG. 8A), the “longest survival of treated mice” value is on record as “up to 156 days”. The “day at which treated mice began dying” value in data set [5] (Study 1, 40 μg/kg 1/day i.p., vehicle day 120, FIG. 8A, p<0.01) was found to be 131 days. Further, the “longest survival of treated mice” value in data set [5] (Study 2, 0.4 μg/kg 1/day i.p., vehicle all dead at day 154, FIG. 8B) is given as “up to 189 days”. The “day at which treated mice began to die” value in data set [5] (Study 2, 0.4 μg/kg 1/day i.p., vehicle day 120, FIG. 8B) is 125 days. In addition, the “lifetime of mice suffering from the ALS-like disorder” value in data set [5] (two studies, 40 μg/kg or 0.4 μg/kg 1/day i.p. from disease onset, FIGS. 8A and 8B) is “significant extension of lifetime”.

The record behind these values is patent US9040485B2, “Synthetic analogues of neural regeneration peptides” (Curonz Holdings Company Limited, priority 2007, dated 2015).
